The NIST ThermoML archive (doi:10.1016/j.fluid.2014.12.001)
± gives the expanded uncertainty stated by the source.

Tests used:
[1] = Crystal; visual observation
[2] = Molar enthalpy of transition or fusion; conditions: Crystal; DSC

| Compound | Normal melting temperature [1] [°C] | Molar enthalpy of transition or fusion [2] [kcal/mol] |
| --- | --- | --- |
| Oc1cccc2ccccc12 [1-naphthol] | 95.10 ± 1.1 | 5.2 ± 0.237 |
| Nc1ccccc1[N+](=O)[O-] [2-nitroaniline] | 69.7 ± 1.1 | 4.6 ± 0.21 |
